Measured values from US10471057B2, “Toxic RNA inhibitors self-assembled in situ” (THE SCRIPPS RESEARCH INSTITUTE, priority 2014, dated 2019).
“Also recorded” adds a separate entry of the source.

How the values were obtained:
[1] = tested on: r(CUG) repeats in 3' UTR of luciferase; assay: Translational defect luciferase reporter assay, 800 CTG repeats; type: cell-based; conditions: cells with long, toxic r(CUG) repeats
Experimental: (§1) C2C12 cell lines expressing 800 or 0 CTG repeats in the 3′ UTR of luciferase were grown as monolayers in 96-well plates in growth medium (1×DMEM, 10% FBS, 1× glutagro, (Corning) andlX antibiotic/antimycotic (Corning))^[10]. Once the cells were 70% confluent, the click functionalized dimers were added in 100 μL of growth medium (1000 nM N3-2H-K4NMeS and 1000, 10 and 0.1 nM N3-2H-K4NMeS-Aak). Cells were treated with compound for 48 h and then the cell count was normalized using WST-1 reagent (Roche). Then cells were washed with 1×DPBS and lysed by treating with 50 μL of PPBT lysis buffer at room temperature for 10 minutes. Then 50 μL of luciferase substrate was added and luminescence was measured.

r(CUG)exp [2] = assay: DM1 pre-mRNA splicing defects in patient derived fibroblasts; type: cell-based, human
Experimental: Bioactivity of small molecule dimers was assessed by using DM1 patient derived fibroblasts containing 500 CTG repeats (GM03987) and healthy fibroblasts (GM07492). Cells were grown as monolayers in 12 well plates in growth medium (1×EMEM (Lonza), 10% FBS, 1× glutagro (Corning), 1×MEM non-essential amino acids (Corning) and 1× antibiotic/antimycotic (Corning)). Once cells were ˜80% confluent, they were treated with growth medium containing the compound of interest (10, 1, 0.1 and 0.01 μM 2H-K4NMeS; 100, 10 and 1 nM 2H-K4NMeS-CA-Biotin; 1 μM N3-2H-K4NMeS; 500 nM N3-2H-K4NMeS+500 nM 2H-K4NMeS-Aminohexanoate; 1000, 10 and 0.1 nM N3-2H-K4NMeS-Aak; 250, 100, and 50 nM 2H-K4NMeS-Bleomycin A5). After 48 h the cells were lysed and the total RNA was harvested using a Zymo Quick RNA miniprep kit. An on-column DNA digestion was completed per the manufacturer's recommended protocol. Approximately 150 ng of total RNA was reverse transcribed at 50° C. using 100 units of SuperScript III reverse transcriptase (Life Technologies). Then 20% of the RT reaction was subjected to PCR using GoTaq DNA polymerase (Promega). RT-PCR products were observed after 25 cycles of 95° C. for 30 s, 58° C. for 30 s, 72° C. for 1 min and a final extension at 72° C. for 1 min. The products were separated on an 2% agarose gel ran at 100 V for 1 h in 1×TAE buffer. The products were visualized by staining with ethidium bromide and scanned using a Bio-Rad Gel Doc XR+ imaging system. The RT-PCR primers for the MBNL1 were […]

[3] = tested on: luciferase reporter without CTG repeats; assay: Translational defect luciferase reporter assay, 0 CTG repeats; type: cell-based
Experimental: as §1

r(CUG)exp [4] = assay: Nuclear foci by FISH in DM1 patient derived fibroblasts; type: cell-based, human; conditions: 48 h
Experimental: FISH was utilized to determine the effects of small molecule dimers on the formation and disruption of nuclear foci. DM1 patient derived fibroblasts containing 500 CTG repeats (GM03987) were grown to ˜80% confluence in a Mat-Tek 96-well glass bottom plate in growth medium. Cells were treated with the compound of interest for 48 h in growth medium followed by FISH as previously described^6 using 1 ng/μL DY547-2′OMe-(CAG)6. Immunostaining of MBNL1 was completed as previously described^7 using the MB1a antibody (diluted 1:4), which was generously supplied by Prof. Glenn E. Morris (Wolfson Centre for Inherited Neuromuscular Disease^[9]. This was fluorescently labeled using a 1:200 dilution of goat anti-mouse IgG DyLight 488 conjugate. Untreated controls were stained using a 1 μg/μL solution of DAPI in 1×DPBS. Cells were imaged in 1×DPBS using an Olympus FluoView 1000 confocal microscope at 100× magnification.

r(CCUG)300 = assay: Disruption of nuclear foci by FISH in DM2 cell culture model; type: cell-based; conditions: C2C12 cells expressing r(CCUG)300, 72 h treatment; untreated 9±2
Experimental: FISH was utilized to determine the effects of clickable compounds on the formation of nuclear foci. C2C12 were sub-cultured into Mat-Tek 96-well glass bottom plates in growth medium. After the cells reached 60-70% confluency, each well was transfected with 200 ng of total plasmid using 1 μL of Lipofectamine 2000 according to the manufacturer's standard protocol. Equal amounts of plasmids expressing the DM2 mini-gene^[1] and EGFP, used as a positive marker of transfection, were used. After 5 h, the transfection cocktail was removed and replaced with differentiation medium containing the compound of interest. The cells were treated with compound for 72 h followed by FISH as previously described using 1 ng/μL DY547-2′OMe-(CAGG)5^[6]. Cells were imaged in 1×DPBS using an Olympus FluoView 1000 confocal microscope at 100× magnification.

r(CUG)109 = assay: In vitro reaction and pull down of small molecule dimers with RNA; type: biochemical; conditions: rCUG109, GC-based paired RNA and tRNA
Experimental: Then 30 μL of this slurry were added to each sample and incubated at room temperature for 1 h. Then the samples were centrifuged and the supernatant was transferred to a separate tube. The beads were then washed with 1×PBST and centrifuged. The supernatant was transferred to the tube containing the unbound RNA. The total radioactive counts of bound and unbound RNA were measured by scintillation counting.

DMPK mRNA = conditions: 100 nM, 48 h, qRT-PCR of r(CUG)-containing mRNAs
Experimental: Target identification of small molecule dimers was assessed using DM1 patient derived fibroblasts containing 500 CTG repeats (GM03987) and healthy fibroblasts (GM07492). Cells were grown as monolayers in 100 mm^2 in growth medium (1×EMEM (Lonza), 10% FBS, 1× glutagro (Corning), 1×MEM non-essential amino acids (Corning) and 1× antibiotic/antimycotic (Corning)). Once cells were 80% confluent, they were treated with growth medium containing the compound of interest (100 nM 2H-K4NMeS-CA-Biotin). After 48 h the cells were lysed and the total RNA was harvested using Trizol reagent (Life Technologies). Approximately 10 of total RNA was incubated with streptavidin-agarose beads (100 Sigma) for 1 h at room temperature. Then the beads were washed with 1×PBS and the bound RNA was eluted by adding 100 μL of 95% formamide, 10 mM EDTA pH 8.2 for 10 min at 60° C. The bound RNA was cleaned up using a Zymo Quick RNA miniprep kit. Approximately 100 ng of RNA was used for RT qScript cDNA synthesis kit (Quanta BioSciences). 10% of the RT reaction was used for real time PCR (qPCR) with SYBR green master mix (Life Technologies) performed on a 7900HT Fast Real-Time PCR System (Applied Biosystems). Monitored rCUG-containing mRNAs DMPK (500 repeats), SUPT20HL1 (17 repeats), CASK (16 repeats), LRP8 (11 repeats), MAP3K4 (11 repeats), SCUBE (7 repeats) and SORCS2 (7 repeats). Quantified by ΔΔCt relative to GAPDH

[5] = Metabolic stability in rat microsomes; type: in vitro ADME
r(CUG)exp [6] = assay: Splicing defects in HSA LR DM1 mouse model; type: in vivo; conditions: intraperitoneal once per day for 7 days, vastus muscle
Experimental: All experimental procedures, mouse handling, and husbandry were completed in accordance with the Association for Assessment and Accreditation of Laboratory Animal Care. A mouse model for DM1^[8], HSA^LR in line 20b, was used. HSA^LR mice express human skeletal actin RNA with 250 CUG repeats in the 3′ UTR. Age- and gender-matched HSA^LR mice were injected intraperitoneally with either 100 mg/kg 2H-K4NMe in water or 13.3 mg/kg 2H-K4NMeS for treatment and 0.9% NaCl for control once per day for 7 days. Mice were sacrificed one day after the last injection, and the vastus muscle was obtained. RNA was extracted from the vastus tissue, and cDNA was synthesized as previously described.

In the case of `C#CC(=O)NCCCCCC(=O)N(CCN(C)C(=O)CCCOc1cccc(-c2nc3ccc(-c4nc5cc(N6CCN(C)CC6)ccc5[nH]4)cc3[nH]2)c1)CC(=O)N(C)[C@@H](C)C(=O)N(C)[C@@H](C)C(=O)N(C)[C@@H](C)C(=O)N(CCCCN(C)C(=O)CCCOc1cccc(-c2nc3ccc(-c4nc5cc(N6CCN(C)CC6)ccc5[nH]4)cc3[nH]2)c1)CC(=O)N(CCCN=[N+]=[N-])CC(N)=O` [N3-2H-K4NMeS-Aak], the DMPK translational defect [1] is reported as “improved the DMPK translational defect at nanomolar concentrations”, the “improvement of DM1-associated pre-mRNA splicing defects” value (r(CUG)exp [2]; DM1 patient-derived fibroblasts, 10 nM dosage) is reported as over 50% and the “effect on translation in cells without pathogenic repeats” value [3] is reported as “has no effect on cells that did not have pathogenic repeats”. For the same compound, the RNA nuclear foci (r(CUG)exp [4]) was “far fewer foci are observed”.

In the case of `[N-]=[N+]=NCC1OC(OC2C(N)CC(N)C(OC3OC(CN)C(O)C(O)C3O)C2O)C(O)C(N)C1O` (centres unmarked) [N3-K], the “average number of foci per cell” value (r(CCUG)300) is reported as 6±2 foci per cell.

For `C[C@H](NC(=O)[C@H](C)N(C)C(=O)CN(CCN(C)C(=O)CCCOc1cccc(-c2nc3ccc(-c4nc5cc(N6CCN(C)CC6)ccc5[nH]4)cc3[nH]2)c1)C(=O)CN(CCNC(=O)CCCC[C@@H]1SC[C@@H]2NC(=O)N[C@@H]21)C(=O)CCNC(=O)CCCc1ccc(N(CCCl)CCCl)cc1)C(=O)N(C)[C@@H](C)C(=O)N(CCCCN(C)C(=O)CCCOc1cccc(-c2nc3ccc(-c4nc5cc(N6CCN(C)CC6)ccc5[nH]4)cc3[nH]2)c1)CC(N)=O` [2H-K4NMeS-CA-Biotin], the “in vitro reaction with RNA targets” value (r(CUG)109) was “most effectively reacted with r(CUG)109”, the “RNA targets pulled down (Chem-CLIP)” value (DMPK mRNA) was “binds to disease-causing expanded transcripts and not other RNAs with shorter (non-pathogenic length) r(CUG) repeats” and the “improvement of DM1-associated pre-mRNA splicing defects (in words)” value (r(CUG)exp [2]; cells) was “improves DM1-associated pre-mRNA splicing defects in cells”.

In the case of `C[C@@H](C(=O)N(C)[C@@H](C)C(=O)N(C)[C@@H](C)C(=O)N(C)[C@@H](C)C(=O)N(CCCCN(C)C(=O)CCCOc1cccc(-c2nc3ccc(-c4nc5cc(N6CCN(C)CC6)ccc5[nH]4)cc3[nH]2)c1)CC(N)=O)N(C)C(=O)CCCOc1cccc(-c2nc3ccc(-c4nc5cc(N6CCN(C)CC6)ccc5[nH]4)cc3[nH]2)c1` [2H-K4NMeS], the “stability in microsomes (in words)” value [5] is reported as “stable in microsomes; also recorded: stable to rat microsomes”, the “rescue of pre-mRNA splicing defect” value (r(CUG)exp [2]; DM1 patient-derived fibroblasts, concentrations greater than 100 nM) is reported as over 50% and the “potency at improving Clen1 pre-mRNA splicing defect compared to 2H-K4NMe” value (r(CUG)exp [6]) is reported as over 7 fold.
